Assay results from patent US6737383B1, “Herbicidal oxadiazolidines” (priority 1999, dated 2004).

Tests used:
[1] = tested on: redroot pigweed; test: Test C postemergence redroot pigweed; type: in vivo, Amaranthus retroflexus; conditions: 0 to 100 scale, 0 no effect, 100 complete control
Procedure: (§1) Compounds evaluated in this test were formulated in a non-phytotoxic solvent mixture which included a surfactant and applied to plants that were grown for various periods of time before treatment (postemergence application). A mixture of sandy loam soil and greenhouse potting mix in a 60:40 ratio was used for the postemergence test.
(§2) Plantings of these crops and weed species were adjusted to produce plants of appropriate size for the postemergence test. All plant species were grown using normal greenhouse practices. Crop and weed species include arrowleaf sida (Sida rhombifolia), barnyardgrass (Echinochloa crus-galli), cocklebur (Xanthium strumarium), common ragweed (Ambrosia elatior), corn (Zea mays), cotton (Gossypium hirsutum), eastern black nightshade (Solanum ptycanthum), fall panicum (Panicum dichotomiflorum), field bindweed (Convolvulus arvensis), giant foxtail (Setaria faberii), hairy beggarticks (Bidens pilosa), ivyleaf morningglory (Ipomoea hederacea), johnsongrass (Sorghum halepense), ladysthumb smartweed (Polygonum persicaria), lambsquarters (Chenopodium album), large crabgrass (Digitaria sanguinalis), purple nutsedge (Cyperus rotundus), redroot pigweed (Amaranthus retroflexus), soybean (Glycine max), surinam grass (Brachiaria decumbens), velvetleaf (Abutilon theophrasti) and wild poinsettia (Euphorbia heterophylla).
(§3) Treated plants and untreated controls were maintained in a greenhouse for approximately 14, to 21 days, after which all treated plants were compared to untreated controls and visually evaluated. Plant response ratings, summarized in Table C, were based upon a 0 to 100 scale where 0 was no effect and 100 was complete control. A dash response (−) means no test result.

[2] = tested on: lambsquarters; test: Test C postemergence lambsquarters; type: in vivo, Chenopodium album; conditions: 0 to 100 scale, 0 no effect, 100 complete control
Procedure: as §1, §2, §3

[3] = tested on: galium; test: Test E galium; type: in vivo, Galium aparine; conditions: Preemergence
[4] = tested on: deadnettle; test: Test E deadnettle; type: in vivo, Lamium amplexicaule; conditions: Preemergence
[5] = tested on: deadnettle; test: Test E deadnettle; type: in vivo, Lamium amplexicaule; conditions: Postemergence
Procedure: (§4) Compounds evaluated in this test were formulated in a non-phytotoxic solvent mixture which included a surfactant and applied to plants that were in the 1- to 4-leaf stage (postemergence application). A mixture of sandy loam soil and greenhouse potting mix in a 60:40 ratio was used for the postemergence test.
(§5) Plantings of these crops and weed species were adjusted to produce plants of appropriate size for the postemergence test. All plant species were grown using normal greenhouse practices. Crop and weed species include annual bluegrass (Poa annua), blackgrass (Alopecurus myosuroides), black nightshade (Solanum nigra), chickweed (Stellaria media), common poppy (Papaver rhoeas), deadnettle (Lamium amplexicaule), downy brome (Bromus tectorum), field violet (Viola arvensis), galium (Galium aparine), green foxtail (Setaria viridis), Italian ryegrass (Lolium multiflorum), jointed goatgrass (Aegilops cylindrica), kochia (Kochia scoparia), lambsquarters (Chenopodium album), littleseed canarygrass (Phalaris minor), rape (Brassica napus), redroot pigweed (Amaranthus retroflexus), Russian thistle (Salsola kali), scentless chamomile (Matricaria inodora), spring barley (Hordeum vulgare), sugar beet (Beta vulgaris), sunflower (Helianthus annuus), ivyleaf speedwell (Veronica hederaefolia), spring wheat (Triticum aestivum), winter wheat (Triticum aestivum), wild buckwheat (Polygonum convolvulus), wild mustard (Sinapis arvensis), wild oat (Avena fatua), windgrass (Apera spica-venti) and winter barley (Hordeum vulgare).
(§6) Treated plants and untreated controls were maintained in a greenhouse for approximately 21 to 28 days, after which all treated plants were compared to untreated controls and visually evaluated. […] A dash response (-) means no test result.

[6] = tested on: velvetleaf; test: Test C postemergence velvetleaf; type: in vivo, Abutilon theophrasti; conditions: 0 to 100 scale, 0 no effect, 100 complete control
Procedure: as §1, §2, §3

[7] = tested on: sugar beet; test: Test E sugar beet; type: in vivo, Beta vulgaris; conditions: Postemergence
How it was run: (§7)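 Compound formulated with surfactant in a non-phytotoxic solvent (postemergence: young 1- to 4-leaf plants); held in greenhouse approx. 21–28 days; visual assessment against untreated plants.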

[8] = tested on: littleseed canarygrass; test: Test E littleseed canarygrass; type: in vivo, Phalaris minor; conditions: Postemergence
How it was run: as §7

[9] = tested on: fall panicum; test: Test C postemergence fall panicum; type: in vivo, Panicum dichotomiflorum; conditions: 0 to 100 scale, 0 no effect, 100 complete control
How it was run: (§8)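 Visual ratings on a 0 to 100 scale, where 0 means no effect and 100 complete control, were made versus untreated controls roughly 14 to 21 days after postemergence treatment. Test compounds were formulated in a non-phytotoxic solvent mixture containing a surfactant.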

[10] = tested on: wild poinsettia; test: Test C postemergence wild poinsettia; type: in vivo, Euphorbia heterophylla; conditions: 0 to 100 scale, 0 no effect, 100 complete control
How it was run: as §8

[11] = tested on: kochia; test: Test E kochia; type: in vivo, Kochia scoparia; conditions: Postemergence
How it was run: as §7

[12] = tested on: common ragweed; test: Test C postemergence common ragweed; type: in vivo, Ambrosia elatior; conditions: 0 to 100 scale, 0 no effect, 100 complete control
How it was run: as §8

[13] = tested on: lambsquarters; test: Test E lambsquarters; type: in vivo, Chenopodium album; conditions: Preemergence
[14] = tested on: wild mustard; test: Test E wild mustard; type: in vivo, Sinapis arvensis; conditions: Postemergence
Procedure: […] A mixture of sandy loam soil and greenhouse potting mix in a 60:40 ratio was used for the postemergence test.
as §5, §6

[15] = tested on: wild buckwheat; test: Test E wild buckwheat; type: in vivo, Polygonum convolvulus; conditions: Postemergence
Procedure: as §4, §5, §6

[16] = tested on: barnyardgrass; test: Test C postemergence barnyardgrass; type: in vivo, Echinochloa crus-galli; conditions: 0 to 100 scale, 0 no effect, 100 complete control
Procedure: as §1, §2, §3

[17] = Rate 62 g/ha, 0 to 100 scale, 0 no effect, 100 complete control
[18] = Rate 125 g/ha, 0 to 100 scale (0 no effect, 100 complete control)
[19] = Rate 250 g/ha, 0 to 100 scale (0 no effect, 100 complete control)
[20] = Rate 500 g/ha, 0 to 100 scale where 0 is no effect and 100 is complete control
[21] = Rate 500 g/ha, 0 to 100 scale, 0 no effect, 100 complete control

CCn1c(=O)on(C(=O)N(c2ccc(F)cc2)C(C)C)c1=O [Compound 107]
95: Plant response rating, Barnyardgrass ([16]; Rate 1120 g/ha)
5: Plant response rating, Deadnettle ([5]; Rate 125 g/ha, 0 to 100 scale) | Plant response rating, Velvetleaf ([6]; Rate 140 g/ha) | Plant response rating, Kochia ([11]; Rate 62 g/ha, 0 to 100 scale) | Plant response rating, Wild mustard ([14]; Rate 62 g/ha, 0 to 100 scale)
100: Plant response rating, Galium ([3]; Rate 250 g/ha, 0 to 100 scale) | Plant response rating, Lambsquarters [13, 17] | Plant response rating, Lambsquarters [13, 18] | Plant response rating, Lambsquarters ([13]; Rate 250 g/ha, 0 to 100 scale)
50: Plant response rating, Galium [3, 17] | Plant response rating, Deadnettle [4, 17] | Plant response rating, Deadnettle [5, 19] | Plant response rating Fall panicum ([9]; Rate 140 g/ha) | Plant response rating Common ragweed ([12]; Rate 280 g/ha) | Plant response rating Common ragweed ([12]; Rate 560 g/ha) | Plant response rating Common ragweed ([12]; Rate 1120 g/ha)
75: Plant response rating, Redroot pigweed ([1]; Rate 280 g/ha) | Plant response rating, Velvetleaf ([6]; Rate 1120 g/ha)
15: Plant response rating, LS canarygrass ([8]; Rate 62 g/ha, 0 to 100 scale) | Plant response rating Wild poinsettia ([10]; Rate 280 g/ha) | Plant response rating, Kochia [11, 19]
70: Plant response rating, Galium [3, 18] | Plant response rating, Velvetleaf ([6]; Rate 560 g/ha) | Plant response rating, Barnyardgrass ([16]; Rate 140 g/ha)
20: Plant response rating, LS canarygrass ([8]; Rate 125 g/ha, 0 to 100 scale) | Plant response rating, Kochia ([11]; Rate 125 g/ha, 0 to 100 scale)
0: Plant response rating, Lambsquarters ([2]; Rate 140 g/ha) | Plant response rating, Lambsquarters ([2]; Rate 280 g/ha) | Plant response rating, Deadnettle ([5]; Rate 62 g/ha, 0 to 100 scale) | Plant response rating Wild poinsettia ([10]; Rate 140 g/ha) | Plant response rating Common ragweed ([12]; Rate 140 g/ha) | Plant response rating, Wild buckwheat ([15]; Rate 62 g/ha, 0 to 100 scale) | Plant response rating, Wild buckwheat ([15]; Rate 125 g/ha, 0 to 100 scale)
80: Plant response rating, Redroot pigweed ([1]; Rate 560 g/ha) | Plant response rating, Redroot pigweed ([1]; Rate 1120 g/ha) | Plant response rating Wild poinsettia ([10]; Rate 1120 g/ha)
10: Plant response rating, Sugar beet ([7]; Rate 62 g/ha, 0 to 100 scale) | Plant response rating, Sugar beet ([7]; Rate 125 g/ha, 0 to 100 scale) | Plant response rating, Wild buckwheat [15, 19]
90: Plant response rating, Wild mustard ([14]; Rate 125 g/ha, 0 to 100 scale) | Plant response rating, Barnyardgrass ([16]; Rate 560 g/ha)
60: Plant response rating, Deadnettle [4, 18] | Plant response rating, Velvetleaf ([6]; Rate 280 g/ha) | Plant response rating, LS canarygrass [8, 19] | Plant response rating Fall panicum ([9]; Rate 280 g/ha)
85: Plant response rating, Deadnettle ([4]; Rate 250 g/ha, 0 to 100 scale) | Plant response rating Fall panicum ([9]; Rate 560 g/ha) | Plant response rating Fall panicum ([9]; Rate 1120 g/ha) | Plant response rating, Barnyardgrass ([16]; Rate 280 g/ha)
40: Plant response rating, Lambsquarters ([2]; Rate 560 g/ha) | Plant response rating, Lambsquarters ([2]; Rate 1120 g/ha) | Plant response rating, Sugar beet [7, 19] | Plant response rating Wild poinsettia ([10]; Rate 560 g/ha) | Plant response rating, Wild mustard [14, 19]

CCn1c(=O)on(C(=O)N(c2ccc(F)cc2F)C(C)C)c1=O [Compound 116]
0: Plant response rating, Redroot pigweed ([1]; Rate 140 g/ha) | Plant response rating, Redroot pigweed ([1]; Rate 280 g/ha) | Plant response rating, Redroot pigweed ([1]; Rate 560 g/ha) | Plant response rating, Lambsquarters ([2]; Rate 140 g/ha) | Plant response rating, Lambsquarters ([2]; Rate 560 g/ha) | Plant response rating, Lambsquarters ([2]; Rate 1120 g/ha) | Plant response rating, Deadnettle ([5]; Rate 62 g/ha, 0 to 100 scale) | Plant response rating, Deadnettle ([5]; Rate 125 g/ha, 0 to 100 scale) | Plant response rating, Velvetleaf ([6]; Rate 140 g/ha) | Plant response rating, Velvetleaf ([6]; Rate 280 g/ha) | Plant response rating, Sugar beet ([7]; Rate 62 g/ha, 0 to 100 scale) | Plant response rating, Sugar beet ([7]; Rate 125 g/ha, 0 to 100 scale) | Plant response rating, Sugar beet [7, 19] | Plant response rating, Sugar beet [7, 21] | Plant response rating Wild poinsettia ([10]; Rate 140 g/ha) | Plant response rating Wild poinsettia ([10]; Rate 280 g/ha) | Plant response rating Wild poinsettia ([10]; Rate 560 g/ha) | Plant response rating, Kochia ([11]; Rate 62 g/ha, 0 to 100 scale) | Plant response rating, Kochia ([11]; Rate 125 g/ha, 0 to 100 scale) | Plant response rating, Kochia [11, 19] | Plant response rating, Kochia [11, 21] | Plant response rating Common ragweed ([12]; Rate 140 g/ha) | Plant response rating Common ragweed ([12]; Rate 280 g/ha) | Plant response rating Common ragweed ([12]; Rate 560 g/ha) | Plant response rating Common ragweed ([12]; Rate 1120 g/ha) | Plant response rating, Wild buckwheat ([15]; Rate 62 g/ha, 0 to 100 scale) | Plant response rating, Wild buckwheat ([15]; Rate 125 g/ha, 0 to 100 scale) | Plant response rating, Wild buckwheat [15, 19] | Plant response rating, Wild buckwheat [15, 21]
100: Plant response rating, Galium [3, 18] | Plant response rating, Galium ([3]; Rate 250 g/ha, 0 to 100 scale) | Plant response rating, Galium [3, 20] | Plant response rating, Lambsquarters [13, 18] | Plant response rating, Lambsquarters ([13]; Rate 250 g/ha, 0 to 100 scale) | Plant response rating, Lambsquarters [13, 20]
85: Plant response rating Fall panicum ([9]; Rate 560 g/ha) | Plant response rating, Barnyardgrass ([16]; Rate 280 g/ha)
50: Plant response rating, Deadnettle [5, 21] | Plant response rating, LS canarygrass [8, 21]
90: Plant response rating Fall panicum ([9]; Rate 1120 g/ha) | Plant response rating, Barnyardgrass ([16]; Rate 560 g/ha) | Plant response rating, Barnyardgrass ([16]; Rate 1120 g/ha)
80: Plant response rating, Deadnettle ([4]; Rate 250 g/ha, 0 to 100 scale) | Plant response rating, Deadnettle [4, 20] | Plant response rating, Velvetleaf ([6]; Rate 1120 g/ha)
60: Plant response rating Fall panicum ([9]; Rate 280 g/ha)
40: Plant response rating, Velvetleaf ([6]; Rate 560 g/ha) | Plant response rating, LS canarygrass [8, 19] | Plant response rating, Wild mustard [14, 19] | Plant response rating, Wild mustard [14, 21]
30: Plant response rating, LS canarygrass ([8]; Rate 125 g/ha, 0 to 100 scale)
20: Plant response rating, Redroot pigweed ([1]; Rate 1120 g/ha) | Plant response rating, Deadnettle [5, 19] | Plant response rating, Wild mustard ([14]; Rate 125 g/ha, 0 to 100 scale)
10: Plant response rating, LS canarygrass ([8]; Rate 62 g/ha, 0 to 100 scale) | Plant response rating Fall panicum ([9]; Rate 140 g/ha)
95: Plant response rating, Deadnettle [4, 18]
70: Plant response rating, Wild mustard ([14]; Rate 62 g/ha, 0 to 100 scale)
55: Plant response rating, Barnyardgrass ([16]; Rate 140 g/ha)
